Test system: HT1080 cells
Test: Cell adhesion test (crystal violet colorimetric) on immobilised peptide, HT1080 cells
Type: cell-based, Human
Details: microscopy, FIG. 6B
Description: (A, B) Dose-dependent adhesion of normal human keratinocytes and cells of the HT1080 strain to the peptide KKLRIKSKEK (SEQ ID NO: 1) and to the LG4/5 protein. The peptide (A) and the protein LG4/5 (B) were immobilised on 96-well plates at the concentrations indicated on the abscissa. 6·10^4 cells were deposited in each well and the plates were incubated at 37° C. for 1 hour. After washing, the adherent cells were fixed and cell adhesion was measured as described in the methodology section. (C) Observation of normal human keratinocytes and HT1080 cells adhering to KKLRIKSKEK peptide (SEQ ID NO: 1) and to the LG4/5 protein. The observation was made with a Zeiss Axiovert 40 microscope equipped with a PlasDic interference unit. 50 μm bar.
(A) A decreasing range of peptides KKLRIKSKEK (SEQ ID NO: 1) and NSFMALYLSKGR (SEQ ID NO: 21) was immobilised in 96-well Microlon plates and the amount actually adsorbed was determined by protein assay with reference to a corresponding range of peptides made extemporaneously. The quantities of peptide tested are indicated on the abscissa of the graph. 6·10^4 cells were deposited in each well and the plates were incubated at 37° C. for 1 hour. After washing, the adherent cells were fixed and cell adhesion was measured as described in the methodology section. […]

Q: How did the “Morphology of HT1080 cells adhering to the peptide” value turn out when NSFMALYLSKGR was run?
A: no cytoplasmic prolongations were noted

Reference: US9260507B2, “Peptide promoting cell adhesion and migration” (Symatese, priority 2009, dated 2016)
